Test [1] deals with IL-2-induced peritoneal recruitment of lymphocytes. The test is described as follows: IL-2-induced peritoneal recruitment of lymphocytes. In kind it is in vivo, C3H/HEN mice. The conditions noted are these: Mus musculus, Lymphocyte, po; 3 mg/kg p.o., 15 min prior to IL-2; mice; 24 h after IL-2. Here is the method:
Administration of IL-2 intraperitoneally causes migration of lymphocytes into the intraperitoneal cavity. This is a model for the cellular migration that occurs during inflammation.
C3H/HEN mice (Elevage Janvier, France) were intraperitoneally injected with IL-2 (Serono Pharmaceutical Research Institute, 20 μg/kg, in saline). Compounds of the invention were suspended in 0.5% carboxymethylcellulose (CMC)/0.25% tween-20 and were administered by s.c. or p.o. route (10 ml/kg) 15 min prior to administration of IL-2.
Twenty-four hours after administration of IL-2, peritoneal white blood cells were collected by 3 successive lavages of the peritoneal cavity with 5 ml phosphate buffered saline (PBS)-1 mM EDTA (+4° C.). The suspension was centrifuged (1700 g×10 min at +4° C.). The resulting pellet was suspended in 1 ml PBS-1 mM EDTA.
Lymphocytes were identified and counted using a Beckman/Coulter counter.
The animals were divided into 6 groups (6 mice each group):
Group 1: (baseline) received 0.5% CMC/0.25% tween-20 (vehicle of compound of the invention) and saline (vehicle of IL-2);
Group 2: (control IL-2) received 0.5% CMC/0.25% tween-20 and injection of IL-2;
Group 3: Experimental group (Compound of the invention Dose 1) received a compound of the invention and injection of IL-2;
Group 4: Experimental group (Compound of the invention Dose 2) received a compound of the invention and injection of IL-2;
Group 5: Experimental group (Compound of the invention Dose 3) received a compound of the invention and injection of IL-2;
Group 6: Reference group received reference compound dexamethasone and injection of IL-2.
Inhibition of lymphocyte recruitment was calculated as follows:
Where Ly 1=Number of lymphocytes in group 1 (E3/μl), Ly 2=Number of lymphocytes in group 2 (E3/μl), Ly X=Number of lymphocytes in group X (3-5) (E3/μl).

For the next test, the target named is MMP13 (Homo sapiens, UniProt P45452). As to the kind of experiment: MMP13 inhibition (Table 1). In kind it is biochemical. The conditions noted are these: read-out: percentage inhibition MMP13.

In test [1], `CC1(C)OC[C@H](C(CS(=O)(=O)N2CCc3ccccc3C2)N(O)C=O)O1` (stereo partly drawn) [Example 2, N-{2-(3,4-dihydroisoquinolin-2(1H)-ylsulfonyl)-1-[(4S)-2,2-dimethyl-1,3-dioxolan-4-yl]ethyl}-N-hydroxyformamide] yielded an inhibition in vivo at 3 mg/kg of 16 ± 13%. Besides, on MMP13, the inhibition at 0.1 µM turned out to be 17% and the inhibition at 5 µM amounted to 98%.

Molecule `O=CN(O)C(CCc1ccccc1)CS(=O)(=O)N1Cc2ccccc2C1` (stereo not drawn) [Example 6, N-{1-[(1,3-dihydro-2H-isoindol-2-ylsulfonyl)methyl]-3-phenylpropyl}-N-hydroxyformamide] returned an inhibition in vivo at 3 mg/kg in test [1] of 40 ± 6%. For the same molecule, at MMP13, the inhibition at 0.1 µM stood at 11% and the inhibition at 5 µM was determined as 94%.

In test [1], `COc1cc2c(cc1OC)CN(S(=O)(=O)CC([C@H]1COC(C)(C)O1)N(O)C=O)CC2` (stereo partly drawn) [Example 14, N-{2-[(6,7-dimethoxy-3,4-dihydroisoquinolin-2(1H)-yl)sulfonyl]-1-[(4S)-2,2-dimethyl-1,3-dioxolan-4-yl]ethyl}-N-hydroxyformamide] returned an inhibition in vivo at 3 mg/kg of 50 ± 10%. At MMP13, the inhibition at 0.1 µM was found to be 5% and the inhibition at 5 µM was 68%.

The term inhibition in vivo denotes the share of the control response that was lost under treatment. Usually inhibition stands for the share of the control response that was lost under treatment.

Values taken from patent US7879876B2, “Sulfonamide derivatives and use thereof for the modulation of metalloproteinases” (Merck Serono SA, priority 2005, dated 2011).
